These results are taken from patent US20080112968A1, “NICOTINAMIDE COMPOSITIONS FOR TREATMENT OF SKIN DISEASES AND DISORDERS” (Dermena, priority 2006, published 2008).

Structures are written as SMILES. A value given as a limit tells only on which side of the number the result lay.

For orientation: solubility means the dissolved amount per volume that the medium holds.

The nature of one series: Solubility in water. Type of series: physicochemical.
Details: not given
As for `C[n+]1cccc(C(N)=O)c1` [Compound 1, 1-Methylnicotinamide], the solubility was above 600 mg/mL.

The next series in a line: Binding of pyridinium salts to sepharose immobilized heparin (spectrophotometric degree of binding). Conditions: water solution incubated 5 minutes with sepharose immobilized heparin 25 mg/mL. The text has this:
Spectrophotometric methodologies were applied to estimate a degree of binding (DB) of the investigated compounds with heparin. This method is based on the absorption measurements of water solution of the investigated compound before and after a contact with heparin. The concentration was adjusted such that the absorbance in the region near the absorption maximum was around 1. The absorption spectra was collected for these prepared solutions. The same solutions of the investigated pyridinium salts were also incubated for 5 minutes with sepharose immobilized heparin (Heparin Sepharose CL-6B, Amersham Biosciences AB, Sweden) added in amount of 25 mg/mL. The suspensions of immobilized heparin with the analyzed compounds were then placed into Eppendorf microtubes and centrifuged at 13000 g for 4 minutes. The resulting clear solution over the sediment was introduced into a cuvette, and the absorption spectrum was measured. The degree of binding was estimated based on comparison of integrated area under the absorption curve for the solutions incubated and non-contacted with heparin.
DB was calculated according to the equation (1):
where: DB=degree of binding,
IA=integrated area under absorption curve for sample without contact with immobilized heparin,
IAHEP=integrated area under absorption curve for sample incubated with immobilized heparin.
With `C[n+]1cccc(C(N)=O)c1` [Compound 1, 1-Methylnicotinamide], the “Degree of binding, [%]” value is listed as above 45%.
Still for that read-out and setting: the figure for `CNC(=O)c1ccc[n+](C)c1` [Compound 2, 1,N′-Dimethylnicotinamide] is 20-45%.
With `CCN(CC)C(=O)c1ccc[n+](C)c1` [Compound 3, 1-Methyl-N′,N′-diethylnicotin-amide], the “Degree of binding, [%]” value is given as 20-45%.
Still for that read-out and setting: the figure for `C[n+]1cccc(C(=O)NCO)c1` [Compound 4, 1-Methyl-N′-(hydroxymethyl)-nicotinamide] is 20-45%.
As for `CC(=O)c1ccc[n+](C)c1` [Compound 5, 1-Methyl-3-acetylpyridine], the “Degree of binding, [%]” value is listed as 20-45%.
Regarding `CCC[n+]1cccc(C(N)=O)c1` [Compound 6, 1-Propylnicotinamide], the “Degree of binding, [%]” value was 20-45%.
`C[n+]1cccc(C(=O)[O-])c1` [Compound 7, Trigonelline]: the “Degree of binding, [%]” value is on record as below 20%.
Regarding `NC(=O)c1cccnc1` [Compound 8, Nicotinamide], the “Degree of binding, [%]” value is listed as below 20%.
